The record followed here is article PMC7617978, “Anti-trypanosomal quinazolines targeting lysyl-tRNA synthetases show partial efficacy in a mouse model of acute Chagas disease” (Science translational medicine, 2025).

Structures are written as SMILES. Like-named read-outs stand apart in the source and are kept apart here.

Series [1] concerns T. cruzi (Sylvio X10/7A1 strain) intracellular amastigote (in Vero cells). The experiment in a line: microbe, parasite or virus in culture. The conditions noted are these: for EC50: Trypanosoma cruzi, Vero; for Fold-shift (relative to WT): intracellular amastigote in Vero cells. The format is cell-based.
Series [2] deals with T. cruzi (Tulahuen strain) intracellular amastigote (in L6 cells). The experiment in a line: Drug sensitivity assay, T. cruzi (Tulahuen)-infected L6 rat skeletal myoblasts. Conditions: Trypanosoma cruzi. The format is cell-based. The protocol: T. cruzi epimastigotes of the Silvio strain (MHOM/BR/78/Silvio; clone X10/7A) were maintained at 28°C in RPMI 1640 medium (Merck) supplemented with trypticase peptone (4.9 mg/ml), HEPES (20 mM), haemin (20 μg/ml), and foetal bovine serum (FBS, 10%), as previously described ([29]). T. cruzi metacyclic trypomastigotes were obtained and maintained, as previously described ([29]). Briefly, late-log epimastigotes were seeded at 10^6 cells/ml in RTH/FBS and differentiated into trypomastigotes after 7 days at 28°C. Vero cells were infected with trypomastigotes for 12 hours in Dulbecco modified Eagle medium (DMEM) supplemented with 5% FBS, at 37°C in the presence of 5% CO2. Infected Vero cells were washed 3× with DMEM/FBS to remove extracellular parasites, and medium was replaced every two days until trypomastigotes re-emerged. Three rounds of infection were performed before trypomastigotes were harvested for drug sensitivity assays. For drug sensitivity assays carried out at the Swiss Tropical Institute, a T. cruzi cell line (Tulahuen C2C4) expressing the β-galactosidase gene LacZ was propagated in L6 rat skeletal myoblasts (ATCC CRL-1458) as previously described ([37]).
Drug sensitivity assays with T. cruzi (Tulahuen)-infected L6 rat skeletal myoblasts were carried out as previously described ([37]).

Series [3] deals with HepG2. Put plainly: Drug sensitivity assay, HepG2 cells. The format is cell-based. On the procedure:
Human HepG2 cells (ECACC 85011430) were cultivated at 37°C in minimal essential medium (MEM) supplemented with GlutaMax (1×, Thermo Fisher), 10% (v/v) fetal bovine serum (FBS), MEM non-essential amino acids (1×, Sigma) and in the presence of 5% CO2, as previously described ([29]). Cells were passaged twice weekly through detachment of adherent cells with trypsin/EDTA (Sigma) and subsequent dilution into fresh medium.
The relative potency of test compounds against T. cruzi epimastigotes ([29]), T. b. brucei bloodstream forms ([41]), T. b. rhodesiense bloodstream forms ([42]), L. donovani promastigotes ([43]) and Hep G2 cells ([29]) were established as previously described. The potency of test compounds on intracellular T. cruzi (Sylvio, X10/7A1) were determined in 96-well plates as previously described ([29]).

In series [4] the target is T1, human KRS (Homo sapiens, UniProt Q15046).
T1 construct: made in house
T1 sequence (Q15046 whole entry): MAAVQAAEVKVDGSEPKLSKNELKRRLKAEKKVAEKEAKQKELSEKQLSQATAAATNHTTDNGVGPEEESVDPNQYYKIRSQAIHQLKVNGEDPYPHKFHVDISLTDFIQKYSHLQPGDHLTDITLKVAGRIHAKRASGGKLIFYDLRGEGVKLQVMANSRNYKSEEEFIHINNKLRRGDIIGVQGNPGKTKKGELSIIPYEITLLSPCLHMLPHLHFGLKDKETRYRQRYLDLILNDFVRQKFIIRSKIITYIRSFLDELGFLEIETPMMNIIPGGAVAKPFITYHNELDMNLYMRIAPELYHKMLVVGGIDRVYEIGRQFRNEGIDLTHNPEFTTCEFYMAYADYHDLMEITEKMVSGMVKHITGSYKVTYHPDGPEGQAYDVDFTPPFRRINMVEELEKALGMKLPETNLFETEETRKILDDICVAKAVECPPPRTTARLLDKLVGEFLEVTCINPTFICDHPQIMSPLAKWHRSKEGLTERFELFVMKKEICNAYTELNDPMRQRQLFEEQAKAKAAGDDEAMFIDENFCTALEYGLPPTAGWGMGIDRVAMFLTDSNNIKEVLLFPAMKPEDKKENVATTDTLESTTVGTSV
Put plainly: Human KRS inhibition assay using BIOMOL Green. The format is biochemical. Conditions: for IC50: recombinant HsKRS, 3.5 μM ATP, 6 μM L-lysine, read-out: IC50 values (95% CI). On the procedure:
Cloning, expression and purification of recombinant HsKRS has been described previously ([21]).
The enzymatic activity of recombinant KRS was determined by monitoring the concentration of pyrophosphate released during the first step of the reaction catalyzed by recombinant TcKRS1. The pyrophosphate formed was converted to two inorganic phosphate molecules using a pyrophosphatase enzyme and concentrations of the resulting phosphate were measured using the BIOMOL Green reagent (Enzo Life Sciences). All screening assays were performed in 384-well, clear, flat-bottom plates (Greiner) at room temperature (~23°C) in 50 μl reaction volumes.
To generate IC50 data for test compounds, 10-point inhibitor dose-response curves were prepared in 384-well assay plates using an ECHO 550 acoustic dispenser (Labcyte).
All assays were performed by adding 25 μl of assay buffer with enzyme to compound-containing assay wells before the reaction was initiated with the addition of a 25 μl substrate mixture containing L-lysine, ATP and pyrophosphatase. […] Following a 6–h reaction at room temperature, the assays were stopped by the addition of 50 μl BIOMOL Green. The BIOMOL Green signal was allowed to develop for 30 min before the absorbance of each well was read at 650 nm using a PheraStar plate reader (BMG). All liquid-dispensing steps were carried out using a Thermo Scientific WellMate dispenser (Matrix).
All IC50 curve fitting was undertaken using ActivityBase XE (version 7.7.1) from IDBS. Percentage inhibition curves for TcKRS1 and human KRS, were fitted to a four-parameter logistic dose-response equation (XLfit model 203), with pre-fitting for all four parameters, using the equation below, where A is no inhibition, B is maximum inhibition, C is the Log10 (IC50), D is the Hill slope and x is the inhibitor concentration. […]

The test system of series [5] is T. b. brucei BSF. Put plainly: Drug sensitivity assay, T. b. brucei bloodstream forms. The conditions noted are these: for EC50: Trypanosoma brucei. The format is cell-based.
In series [6] the test system is T. b. rhodesiense. Put plainly: Drug sensitivity assay, T. b. rhodesiense bloodstream forms. The format is cell-based. Conditions: Trypanosoma brucei, read-out: EC50 value.
For series [7], the target named is CYP1A2 (Homo sapiens, UniProt P05177). Put plainly: In vitro CYP inhibition, 1A2. The format is in vitro ADME. The protocol:
(§1) Compounds were screened for CYP inhibition activity using the protocol established by TCG Lifesciences (India). The activity of five CYP450 isoforms: 1A2; 2C9; 2D6, 3A4; and 2C19 was monitored in the presence of test or control (miconazole) compounds at 10 µM. Reactions were terminated after 10 min (30 min for CYP2C19) by the addition of acetonitrile, centrifuged and analysed via LC-MS/MS. […]

The target of series [8] is CYP2C9 (Homo sapiens, UniProt P11712). The experiment in a line: In vitro CYP inhibition, 2C9. The format is in vitro ADME. On the procedure:
as §1

The target of series [9] is CYP2C19 (Homo sapiens, UniProt P33261). Put plainly: In vitro CYP inhibition, 2C19. The format is in vitro ADME. The protocol: as §1
Chain of CYP2C19 (P33261 whole entry, species assumed): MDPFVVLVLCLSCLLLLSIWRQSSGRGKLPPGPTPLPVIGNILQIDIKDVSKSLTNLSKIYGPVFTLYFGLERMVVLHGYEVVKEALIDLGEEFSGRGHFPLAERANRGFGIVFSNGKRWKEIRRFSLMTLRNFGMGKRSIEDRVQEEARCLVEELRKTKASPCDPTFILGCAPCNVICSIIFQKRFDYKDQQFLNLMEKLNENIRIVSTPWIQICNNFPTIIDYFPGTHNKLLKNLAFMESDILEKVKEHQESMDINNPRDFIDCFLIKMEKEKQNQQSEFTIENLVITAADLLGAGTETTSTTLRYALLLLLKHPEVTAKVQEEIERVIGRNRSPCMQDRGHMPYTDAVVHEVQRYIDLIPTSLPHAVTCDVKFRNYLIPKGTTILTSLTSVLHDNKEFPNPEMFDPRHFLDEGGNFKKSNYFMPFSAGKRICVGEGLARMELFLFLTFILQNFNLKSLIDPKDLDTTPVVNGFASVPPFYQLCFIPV
Series [10] addresses T2, hERG channel (Homo sapiens, UniProt Q12809).
T2 construct: purchased Invitrogen
Put plainly: In vitro hERG fluorescence polarization assay. The format is binding. The conditions noted are these: read-out: hERG inhibition (IC50 value). The protocol: In vitro hERG fluorescence polarization assay
Compounds were assessed for potential hERG channel inhibition using the Predictor® hERG Fluorescence Polarization Assay Kit (Invitrogen), as per manufacturer’s instructions.
Compounds were screened with test compounds at concentrations ranging from 0.0003 – 30
µM. Fluorescence polarization was measured using EnVision plate reader fitted with polarized filters (excitation: 531 nm; emission: 595 nm). IC50 values were determined using GraphPad

[11] abbreviates: read-out: EC50 value, KRS1 OE, intracellular amastigote in Vero cells.
The mark [12] stands for this setting: read-out: EC50 value, KRS1 S319L, intracellular amastigote in Vero cells.
Setting [13] is: read-out: EC50 value, WT, intracellular amastigote in Vero cells.
The mark [14] stands for this setting: KRS1 OE, BSF, read-out: EC50 value.
[15] abbreviates: read-out: EC50 value, KRS1 S319L (as printed in Table S1), BSF.

Chain of CYP1A2 (P05177 whole entry, canonical isoform): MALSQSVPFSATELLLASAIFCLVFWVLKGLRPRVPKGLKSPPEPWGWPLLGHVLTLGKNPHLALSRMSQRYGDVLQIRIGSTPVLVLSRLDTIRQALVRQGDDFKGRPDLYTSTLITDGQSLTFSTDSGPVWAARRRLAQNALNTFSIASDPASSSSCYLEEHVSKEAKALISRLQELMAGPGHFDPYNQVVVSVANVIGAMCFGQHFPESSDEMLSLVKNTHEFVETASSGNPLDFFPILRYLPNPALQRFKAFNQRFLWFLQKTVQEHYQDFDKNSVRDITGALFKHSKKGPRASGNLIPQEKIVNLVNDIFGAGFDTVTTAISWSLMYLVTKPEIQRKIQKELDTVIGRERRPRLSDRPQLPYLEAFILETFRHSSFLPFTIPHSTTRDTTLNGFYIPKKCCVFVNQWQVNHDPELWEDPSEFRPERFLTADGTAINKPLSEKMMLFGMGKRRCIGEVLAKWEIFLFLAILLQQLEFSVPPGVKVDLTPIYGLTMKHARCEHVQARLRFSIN
T2 sequence (Q12809 whole entry): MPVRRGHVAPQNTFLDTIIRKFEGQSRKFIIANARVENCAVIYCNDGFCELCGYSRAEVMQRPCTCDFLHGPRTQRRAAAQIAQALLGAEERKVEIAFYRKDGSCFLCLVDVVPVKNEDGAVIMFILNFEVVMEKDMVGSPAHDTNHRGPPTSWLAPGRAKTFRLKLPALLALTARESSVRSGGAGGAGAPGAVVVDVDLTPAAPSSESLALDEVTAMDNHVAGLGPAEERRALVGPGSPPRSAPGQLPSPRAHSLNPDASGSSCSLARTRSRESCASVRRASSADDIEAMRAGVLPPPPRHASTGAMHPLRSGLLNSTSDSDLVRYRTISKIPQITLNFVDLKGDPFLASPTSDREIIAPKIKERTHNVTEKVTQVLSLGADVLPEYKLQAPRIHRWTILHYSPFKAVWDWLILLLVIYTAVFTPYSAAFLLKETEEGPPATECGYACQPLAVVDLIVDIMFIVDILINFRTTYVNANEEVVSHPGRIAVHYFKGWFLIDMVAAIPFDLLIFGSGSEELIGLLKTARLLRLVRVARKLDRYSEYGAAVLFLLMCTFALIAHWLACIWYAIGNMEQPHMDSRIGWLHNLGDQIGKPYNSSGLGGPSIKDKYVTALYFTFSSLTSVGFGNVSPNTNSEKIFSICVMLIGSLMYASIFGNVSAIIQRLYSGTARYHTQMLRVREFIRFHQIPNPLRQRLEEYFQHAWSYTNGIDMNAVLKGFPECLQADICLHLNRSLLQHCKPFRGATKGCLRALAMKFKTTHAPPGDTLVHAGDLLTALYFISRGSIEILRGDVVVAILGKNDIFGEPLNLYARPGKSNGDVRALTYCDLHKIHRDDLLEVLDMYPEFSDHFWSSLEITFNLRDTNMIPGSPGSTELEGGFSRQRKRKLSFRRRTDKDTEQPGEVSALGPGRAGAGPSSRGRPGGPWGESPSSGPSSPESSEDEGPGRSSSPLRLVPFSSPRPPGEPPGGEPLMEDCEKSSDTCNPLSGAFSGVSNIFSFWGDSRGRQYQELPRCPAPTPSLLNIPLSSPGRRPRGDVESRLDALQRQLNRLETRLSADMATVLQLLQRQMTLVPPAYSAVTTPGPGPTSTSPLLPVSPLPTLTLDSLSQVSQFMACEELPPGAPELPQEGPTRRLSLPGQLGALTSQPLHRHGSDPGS
Chain of CYP2C9 (P11712 whole entry): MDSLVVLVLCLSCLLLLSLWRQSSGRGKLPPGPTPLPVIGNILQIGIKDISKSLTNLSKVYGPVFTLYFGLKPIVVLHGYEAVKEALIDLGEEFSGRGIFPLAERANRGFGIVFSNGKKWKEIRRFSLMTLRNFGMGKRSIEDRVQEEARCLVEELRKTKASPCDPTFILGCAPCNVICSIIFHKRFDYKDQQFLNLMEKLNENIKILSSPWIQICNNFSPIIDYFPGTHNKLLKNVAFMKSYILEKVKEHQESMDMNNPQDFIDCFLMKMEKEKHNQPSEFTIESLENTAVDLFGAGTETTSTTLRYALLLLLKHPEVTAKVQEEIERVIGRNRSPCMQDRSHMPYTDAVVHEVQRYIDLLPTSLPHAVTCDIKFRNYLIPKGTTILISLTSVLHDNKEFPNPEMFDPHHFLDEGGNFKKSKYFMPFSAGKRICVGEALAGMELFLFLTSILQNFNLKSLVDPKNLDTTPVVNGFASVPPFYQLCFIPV

Turning to `Cc1nc(N)c2c(F)c(F)c(NC3CCCC3)c(F)c2n1` [DMU371, N7-Cyclopentyl-5,6,8-trifluoro-2-methylquinazoline-4,7-diamine], the EC50 in [1] (setting [11]) was 888 ± 117 nM; in series [1] (setting [12]) it was 589 ± 57 nM; in [1] (setting [13]), 205 ± 24 nM; in series [2] (TULAHUEN, L6, read-out: EC50 value) it was 233 ± 86 nM; in [3] (Homo sapiens, HepG2, read-out: EC50 value), 5820 ± 500 nM; in series [5] (setting [14]), 4250 ± 170 nM. The EC50 in [5] (WT, BSF, read-out: EC50 value) was found to be 607 ± 9 nM; in series [5] (setting [15]) it was 1870 ± 71 nM; in series [6], 1090 ± 420 nM. Further, in [4], the “extent of inhibition of the human KRS1 enzyme” value was “partial inhibition”. For the same compound, the values for the IC50 in series [4] and in series [10] were 9800 nM and 7600 ± 1300 nM, respectively. Also, the inhibition at 10 min, 10 µM in series [7] was 74.8 ± 0.5%; in series [8], 8.6 ± 0.6%. In [9], this compound yielded an inhibition at 30 min, 10 µM of 6.1 ± 1.3%.
As for `Cc1nc(N)c2c(F)c(F)c(SC3CCCCC3)c(F)c2n1` [DMU759, 7-(Cyclohexylthio)-5,6,8-trifluoro-2-methylquinazolin-4-amine], the “Fold-shift (relative to WT)” value in series [1] (KRS1 OE) is reported as 8 fold; in series [1] (KRS1 S319L) it was 97 fold; in [5] (KRS1 OE, BSF), 9 fold; in series [5] (KRS1 serine-to-leucine mutant (S323L; printed S319L in Table S1), BSF), 58 fold. Also, the EC50 was 121 ± 19 nM in series [1] (setting [11]); 1540 ± 130 nM in series [1] (setting [12]); 16 ± 1 nM in series [1] (setting [13]); 18 ± 7 nM in series [2] (WT Tulahuen strain, intracellular amastigote in L6 cells, read-out: EC50 value); 16900 ± 5380 nM in [3] (Homo sapiens, HepG2; read-out: EC50 value); 1060 ± 33 nM in [5] (setting [14]). For the same compound, the half-maximal effective concentration (EC50) in series [5] (WT, BSF, read-out: EC50 value) was determined as 112 ± 0.8 nM; in series [5] (setting [15]), 6480 ± 360 nM; in series [6] (WT, BSF), 313 ± 183 nM. Moreover, the “extent of inhibition of the human KRS1 enzyme” value in [4] is “partial inhibition”. The IC50 stood at 7170 nM in [4] and 12200 ± 1100 nM in series [10]. The inhibition at 10 min, 10 µM in [7] was found to be 61.5 ± 0.9%; in series [8] it was 7.9 ± 0.8%. For the same compound, the inhibition at 30 min, 10 µM in [9] came out at 12.8 ± 2.8%.

In general, EC50 refers to the concentration that produces a half-maximal response. A word on the IC50: it is the concentration that gives 50% inhibition. The term inhibition denotes the percentage by which the read-out fell short of the control. A higher inhibition goes with a response far below the control.
